Results taken from patent US8263530B2, “Agrochemical formulations containing microcapsules” (priority 2006, dated 2012).

Assay: Storage stability: content of active ingredient in water dispersible granules
Format: physicochemical
Description: A test on the storage stability was performed with the following results:
Comparison of stability of fluoroxypyr and metsulfuon-methyl when a WG granulation is made according to U.S. Pat. No. 5,688,743 (Dow) and the encapsulation step has been omitted and replaced by a joint milling of the corresponding amount of fluoroxypyr and metsulfuron-methyl: […]

[1] = FXY + MET 26 WG (Fluroxypyr 250 g/kg + Metsulfuron 10 g/kg WG, microencapsulated fluroxypyr), test item FXY-MSF_0604, column without storage
[2] = FXY + MET 26 WG (microencapsulated fluroxypyr), GLASS, 0 ± 2° C., after storage
[3] = FXY + MET 26 WG (microencapsulated fluroxypyr), GLASS, 54 ± 2° C., after storage
[4] = FXY + MET 26 WG (microencapsulated fluroxypyr), PLASTIC, 0 ± 2° C., after storage
[5] = FXY + MET 26 WG (microencapsulated fluroxypyr), PLASTIC, 54 ± 2° C., after storage
[6] = Fluroxypyr 250 g/kg + Metsulfuron 10 g/kg WG WITHOUT microencapsulation of fluroxypyr (joint milling, per US 5,688,743), test item FXY-MSF_060/, column without storage
[7] = WG WITHOUT microencapsulation of fluroxypyr, GLASS, 0 ± 2° C., after storage
[8] = WG WITHOUT microencapsulation of fluroxypyr, GLASS, 54 ± 2° C., after storage
[9] = WG WITHOUT microencapsulation of fluroxypyr, PLASTIC, 0 ± 2° C., after storage
[10] = WG WITHOUT microencapsulation of fluroxypyr, PLASTIC, 54 ± 2° C., after storage

SMILES | Content of active ingredient [1] | Content of active ingredient [2] | Content of active ingredient [3] | Content of active ingredient [4] | Content of active ingredient [5] | Content of active ingredient [6] | Content of active ingredient [7] | Content of active ingredient [8] | Content of active ingredient [9] | Content of active ingredient [10]
COc1nc(C)nc(NC(=O)NS(=O)(=O)c2ccccc2C(=O)O)n1 [Metsulfuron] | 1.18 wt-% | 1.18 wt-% | 1.18 wt-% | 1.19 wt-% | 1.18 wt-% | 1.16 wt-% | 0.35 wt-% | 0.21 wt-% | 0.39 wt-% | 0.24 wt-%
Nc1c(Cl)c(F)nc(OCC(=O)O)c1Cl [Fluroxypyr] | 39.37 wt-% | 38.65 wt-% | 38.57 wt-% | 38.51 wt-% | 38.35 wt-% | 39.41 wt-% | 34.44 wt-% | 28.02 wt-% | 36.34 wt-% | 16.05 wt-%
